± gives the expanded uncertainty stated by the source.

For series [1] the following is noted: 293.15 K; 101.33 kPa; Liquid; Vibrating tube method.
A short description of series [2]: refractive index (Na D-line) (dimensionless). The following applies: 293.15 K; 101.33 kPa; Liquid; Standard Abbe refractometry.

For `CC12CCC(CC1)C(C)(C)O2` [1,3,3-trimethyl-2-oxabicyclo[2.2.2]octane], the mass density in series [1] was determined as 924.84 ± 2 kg/m3. Moreover, in series [2], the refractive index is recorded as 1.45756 ± 0.0011.

As to `CCCCO` [butan-1-ol], in series [1], the mass density is listed as 809.75 ± 2 kg/m3. Further, the refractive index in series [2] worked out at 1.39911 ± 0.001.

On to `CCO` [ethanol], for which the mass density in series [1] is 789.38 ± 2 kg/m3. In addition, the refractive index in series [2] is listed as 1.36134 ± 0.001.

In the case of `CO` [methanol], the mass density in series [1] is 791.2 ± 2 kg/m3. Further, the refractive index in series [2] is 1.32826 ± 0.001.

As to `CCCO` [propan-1-ol], the mass density in series [1] stood at 803.85 ± 2 kg/m3. For the same compound, in series [2], the refractive index is on record as 1.38461 ± 0.001.

The mass density is the mass of a sample divided by its volume. The term refractive index denotes the speed of light in vacuum divided by its phase velocity in the sample.

For the origin of these results see the NIST ThermoML archive (doi:10.1016/j.jct.2016.06.010).
